Active and inactive are the calls of the source. No cut-off for these calls is given here.
Tests used:
[1] = target: T1, Glucagon-like peptide 1 receptor (Homo sapiens, UniProt P43220); test: Positive allosteric modulator activity at human GLP-1R expressed in HEK293 cells assessed as fold increase in potentiation of GLP-1(9-36) induced cAMP accumulation in presence of IBMX relative to GLP-1(9-36); type: functional, cell-based
[2] = target: T1, Glucagon-like peptide 1 receptor; test: Positive allosteric modulator activity at human GLP-1R expressed in HEK293 cells assessed as potentiation of GLP-1(9-36) induced cAMP accumulation by measuring maximal efficacy in presence of IBMX relative to GLP-1(9-36); type: functional, cell-based; settings: filed as positive allosteric modulator
[3] = target: T1, Glucagon-like peptide 1 receptor; test: Positive allosteric modulator activity at human GLP-1R expressed in HEK293 cells assessed as potentiation of EC20 GLP-1(9-36) induced cAMP accumulation in presence of IBMX relative to GLP-1(9-36); type: functional, cell-based
[4] = target: T1, Glucagon-like peptide 1 receptor; test: Positive allosteric modulator activity at human GLP-1R expressed in HEK293 cells assessed as potentiation of EC20 GLP-1(9-36) induced cAMP accumulation by measuring maximal efficacy in presence of IBMX relative to GLP-1(9-36); type: functional, cell-based; settings: filed as positive allosteric modulator
[5] = Clearance in CD1 mouse at 1 mg/kg, iv measured upto 8 hrs by LC-MS/MS analysis; type: ADME, organism-based; settings: in vivo
[6] = AUC in CD1 mouse at 1 mg/kg, iv measured upto 8 hrs by LC-MS/MS analysis; type: ADME, organism-based; set-up: time < 8 hrs, dose 1 mg/kg, route iv; settings: in vivo
[7] = Cmax in CD1 mouse at 1 mg/kg, iv measured upto 8 hrs by LC-MS/MS analysis; type: ADME, organism-based; set-up: time < 8 hrs, dose 1 mg/kg, route iv; settings: in vivo
[8] = Half life in CD1 mouse at 1 mg/kg, iv measured upto 8 hrs by LC-MS/MS analysis; type: ADME, organism-based; settings: in vivo
[9] = Volume of distribution at steady state in CD1 mouse at 1 mg/kg, iv measured upto 8 hrs by LC-MS/MS analysis; type: ADME, organism-based; settings: in vivo, read-out: Vdss
[10] = AUC in CD1 mouse at 3 mg/kg, po measured upto 16 hrs by LC-MS/MS analysis; type: ADME, organism-based; set-up: dose 3 mg/kg, time < 16 hrs, route po; settings: in vivo
[11] = Cmax in CD1 mouse at 3 mg/kg, po measured upto 16 hrs by LC-MS/MS analysis; type: ADME, organism-based; set-up: dose 3 mg/kg, time < 16 hrs, route po; settings: in vivo
[12] = Half life in CD1 mouse at 3 mg/kg, po measured upto 16 hrs by LC-MS/MS analysis; type: ADME, organism-based; settings: in vivo
[13] = Tmax in CD1 mouse at 3 mg/kg, po measured upto 16 hrs by LC-MS/MS analysis; type: ADME, organism-based; settings: in vivo
[14] = Oral bioavailability in CD1 mouse at 3 mg/kg measured upto 16 hrs by LC-MS/MS analysis; type: ADME, organism-based; settings: in vivo
[15] = AUC in Sprague-Dawley rat at 1 mg/kg, iv measured upto 8 hrs by LC-MS/MS analysis; type: ADME, organism-based; set-up: time < 8 hrs, dose 1 mg/kg, route iv; settings: in vivo
[16] = Cmax in Sprague-Dawley rat at 1 mg/kg, iv measured upto 8 hrs by LC-MS/MS analysis; type: ADME, organism-based; set-up: dose 1 mg/kg, time < 8 hrs, route iv; settings: in vivo
[17] = Half life in Sprague-Dawley rat at 1 mg/kg, iv measured upto 8 hrs by LC-MS/MS analysis; type: ADME, organism-based; settings: in vivo
[18] = Volume of distribution at steady state in Sprague-Dawley rat at 1 mg/kg, iv measured upto 8 hrs by LC-MS/MS analysis; type: ADME, organism-based; settings: in vivo, read-out: Vdss
[19] = Clearance in Sprague-Dawley rat at 1 mg/kg, iv measured upto 8 hrs by LC-MS/MS analysis; type: ADME, organism-based; settings: in vivo
[20] = AUC in Sprague-Dawley rat at 3 mg/kg, po measured upto 16 hrs by LC-MS/MS analysis; type: ADME, organism-based; set-up: dose 3 mg/kg, time < 16 hrs, route po; settings: in vivo
[21] = Cmax in Sprague-Dawley rat at 3 mg/kg, po measured upto 16 hrs by LC-MS/MS analysis; type: ADME, organism-based; set-up: time < 16 hrs, dose 3 mg/kg, route po; settings: in vivo
[22] = Half life in Sprague-Dawley rat at 3 mg/kg, po measured upto 16 hrs by LC-MS/MS analysis; type: ADME, organism-based; settings: in vivo
[23] = Tmax in Sprague-Dawley rat at 3 mg/kg, po measured upto 16 hrs by LC-MS/MS analysis; type: ADME, organism-based; settings: in vivo
[24] = Oral bioavailability in Sprague-Dawley rat at 3 mg/kg measured upto 16 hrs by LC-MS/MS analysis; type: ADME, organism-based; settings: in vivo
[25] = AUC in Beagle dog at 1 mg/kg, iv measured upto 8 hrs by LC-MS/MS analysis; type: ADME, organism-based, Canis lupus familiaris; set-up: time < 8 hrs, dose 1 mg/kg, route iv; settings: in vivo
[26] = Cmax in Beagle dog at 1 mg/kg, iv measured upto 8 hrs by LC-MS/MS analysis; type: ADME, organism-based, Canis lupus familiaris; set-up: time < 8 hrs, dose 1 mg/kg, route iv; settings: in vivo
[27] = Half life in Beagle dog at 1 mg/kg, iv measured upto 8 hrs by LC-MS/MS analysis; type: ADME, organism-based, Canis lupus familiaris; settings: in vivo
[28] = Volume of distribution at steady state in Beagle dog at 1 mg/kg, iv measured upto 8 hrs by LC-MS/MS analysis; type: ADME, organism-based, Canis lupus familiaris; settings: in vivo, read-out: Vdss
[29] = Clearance in Beagle dog at 1 mg/kg, iv measured upto 8 hrs by LC-MS/MS analysis; type: ADME, organism-based, Canis lupus familiaris; settings: in vivo
[30] = target: T1, Glucagon-like peptide 1 receptor; test: Agonist activity at human GLP-1R expressed in HEK293 cells assessed as potentiation of GLP-1(7-36) induced cAMP accumulation; type: functional, cell-based
[31] = target: T1, Glucagon-like peptide 1 receptor; test: Partial agonist activity at human GLP-1R expressed in HEK293 cells assessed as potentiation of GLP-1(9-36) induced cAMP accumulation in presence of IBMX; type: functional, cell-based
[32] = target: T1, Glucagon-like peptide 1 receptor; test: Partial agonist activity at human GLP-1R expressed in HEK293 cells assessed as potentiation of GLP-1(9-36) induced cAMP accumulation by measuring maximal efficacy in presence of IBMX relative to GLP-1(9-36); type: functional, cell-based
Mus musculus [33] = test: Anti-hyperglycemic activity in overnight-fasted GIPR KO C57BL/6 mouse assessed as reduction in blood glucose AUC at 10 mg/kg, po pretreated with compound for 30 mins followed by dextrose addition measured every 15 mins for 60 mins by oral glucose tolerance test relative to control; type: functional; set-up: scale not given: the % may be the effect or the level left; settings: time 90 min, 1.5 h
[34] = target: T1, Glucagon-like peptide 1 receptor; test: Agonist activity at human GLP-1R expressed in HEK293 cells assessed as potentiation of GLP-1(9-36) induced cAMP accumulation by measuring maximal efficacy at 0.12 uM in presence of IBMX relative to GLP-1(9-36); type: functional, cell-based; settings: filed as agonist
[35] = target: T1, Glucagon-like peptide 1 receptor; test: Agonist activity at human GLP-1R expressed in HEK293 cells assessed as potentiation of GLP-1(9-36) induced cAMP accumulation in presence of IBMX; type: functional, cell-based
[36] = target: T1, Glucagon-like peptide 1 receptor; test: Agonist activity at human GLP-1R expressed in CHO-K1 cells assessed as fold increase in potentiation of EC50 GLP-1(7-36) induced beta-arrestin recruitment; type: functional, cell-based
[37] = target: T1, Glucagon-like peptide 1 receptor; test: Agonist activity at human GLP-1R expressed in CHO-K1 cells assessed as potentiation of GLP-1(9-36) induced beta-arrestin recruitment by measuring maximal efficacy relative to GLP-1(9-36); type: functional, cell-based
[38] = target: T1, Glucagon-like peptide 1 receptor; test: Agonist activity at human GLP-1R expressed in CHO-K1 cells assessed as potentiation of GLP-1(9-36) induced beta-arrestin recruitment; type: functional, cell-based
[39] = target: T1, Glucagon-like peptide 1 receptor; test: Positive allosteric modulator activity at human GLP-1R transfected in rat INS-1 832/13 cells assessed as fold increase in potentiation of GLP-1(7-36) induced cAMP accumulation at 0.1 uM; type: functional, cell-based
[40] = target: T1, Glucagon-like peptide 1 receptor; test: Positive allosteric modulator activity at human GLP-1R transfected in rat INS-1 832/13 cells assessed as potentiation of GLP-1(9-36) induced cAMP accumulation; type: functional, cell-based
[41] = target: T1, Glucagon-like peptide 1 receptor; test: Positive allosteric modulator activity at human GLP-1R transfected in rat INS-1 832/13 cells assessed as potentiation of GLP-1(9-36) induced cAMP accumulation by measuring maximal efficacy at 3 uM relative to GLP-1(9-36); type: functional, cell-based; settings: filed as positive allosteric modulator
[42] = target: T1, Glucagon-like peptide 1 receptor; test: Positive allosteric modulator activity at human GLP-1R transfected in rat INS-1 832/13 cells assessed as increase in GLP-1(9-36) induced insulin levels at 3 uM in presence of high glucose; type: cell-based; settings: filed as positive allosteric modulator
Mus musculus [43] = test: Anti-hyperglycemic activity in overnight-fasted GIPR KO C57BL/6 mouse assessed as reduction in blood glucose AUC at 30 mg/kg, po pretreated with compound for 30 mins followed by dextrose addition measured every 15 mins for 60 mins by oral glucose tolerance test relative to control; type: functional; set-up: scale not given: the % may be the effect or the level left; settings: time 90 min, 1.5 h
Mus musculus [44] = test: Anti-hyperglycemic activity in overnight-fasted GIPR KO C57BL/6 mouse assessed as reduction in blood glucose AUC at 10 mg/kg, po pretreated with compound for 30 mins followed by dextrose addition measured every 15 mins for 60 mins in presence of sitagliptin by oral glucose tolerance test relative to control; type: functional; set-up: scale not given: the % may be the effect or the level left; settings: time 90 min, 1.5 h
Mus musculus [45] = test: Anti-hyperglycemic activity in overnight-fasted GIPR KO C57BL/6 mouse assessed as reduction in blood glucose AUC at 30 mg/kg, po pretreated with compound for 30 mins followed by dextrose addition measured every 15 mins for 60 mins in presence of sitagliptin by oral glucose tolerance test relative to control; type: functional; set-up: scale not given: the % may be the effect or the level left; settings: time 90 min, 1.5 h

T1 sequence (P43220 whole entry): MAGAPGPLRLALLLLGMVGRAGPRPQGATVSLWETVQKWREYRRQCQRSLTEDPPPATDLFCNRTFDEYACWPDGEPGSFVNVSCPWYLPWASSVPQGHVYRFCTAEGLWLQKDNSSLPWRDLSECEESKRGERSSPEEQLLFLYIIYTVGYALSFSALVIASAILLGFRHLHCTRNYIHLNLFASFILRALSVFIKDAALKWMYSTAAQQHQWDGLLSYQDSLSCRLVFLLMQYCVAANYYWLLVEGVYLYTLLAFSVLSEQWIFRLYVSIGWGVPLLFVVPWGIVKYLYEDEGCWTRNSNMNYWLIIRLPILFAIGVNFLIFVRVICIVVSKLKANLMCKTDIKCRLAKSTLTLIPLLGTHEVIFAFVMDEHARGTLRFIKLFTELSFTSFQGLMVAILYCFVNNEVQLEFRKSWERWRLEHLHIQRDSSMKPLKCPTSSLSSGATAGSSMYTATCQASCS

## C[C@H](c1c(Cl)ccc(C2CC2)c1Cl)n1cnc2cnc(Br)cc21
[1]
  fold change (FC): 300
[2]
  Emax: 110%
[3]
  EC50: 1800 nM
[4]
  Emax: 113%

## CC(C(=O)O)c1ccccc1-c1cc2c(cn1)ncn2[C@H](C)c1c(Cl)ccc(C2CC2)c1Cl (some centres not stated)
[1]
  fold change (FC): 7300
[2]
  Emax: 103%
[3]
  EC50: 14 nM
[4]
  Emax: 104%

## C[C@H](c1c(Cl)ccc(C2CC2)c1Cl)n1cnc2cnc(-c3ccccc3[C@@H](C)C(=O)O)cc21
[5]
  clearance: 9 mL/min/kg
[1]
  fold change (FC): 830
[2]
  Emax: 102%
[3]
  EC50: 270 nM
[4]
  Emax: 98%
[6]
  AUC at 8 h: 3.64 µM·h
[7]
  Cmax: 1430 nM
[8]
  half-life: 2.1 h
[9]
  Vd: 1.6 L/kg
[10]
  AUC at 16 h: 7.3 µM·h
[11]
  Cmax: 2040 nM
[12]
  half-life: 1.6 h
[13]
  Tmax: 0.58 h
[14]
  bioavailability: 67%
[15]
  AUC at 8 h: 0.859 µM·h
[16]
  Cmax: 1420 nM
[17]
  half-life: 0.6 h
[18]
  Vd: 1.6 L/kg
[19]
  clearance: 41.9 mL/min/kg
[20]
  AUC at 16 h: 1.16 µM·h
[21]
  Cmax: 183 nM
[22]
  half-life: 2.9 h
[23]
  Tmax: 1.8 h
[24]
  bioavailability: 45%
[25]
  AUC at 8 h: 1.88 µM·h
[26]
  Cmax: 6870 nM
[27]
  half-life: 0.6 h
[28]
  Vd: 0.3 L/kg
[29]
  clearance: 18.5 mL/min/kg
[30]
  EC50: 0.085 nM
[31]
  EC50: 1800 nM
[32]
  Emax: 13%
Mus musculus [33]
  Activity: 9%
[34]
  Emax: 92%
[35]
  EC50: 7 nM
[36]
  fold change (FC): 1.9
[37]
  Emax: 10%
[38]
  EC50: 12 nM
[39]
  fold change (FC): 2.7
[40]
  EC50: 7 nM
[41]
  Emax: 87%
[42]
  Activity: Active
Mus musculus [43]
  Activity: 40%
Mus musculus [44]
  Activity: 29%
Mus musculus [45]
  Activity: 65%

## COc1ccc(Cl)c([C@@H](C)n2cnc3ccc(Br)cc32)c1Cl
[1]
  fold change (FC): 250
[2]
  Emax: 115%
[3]
  EC50: 800 nM
[4]
  Emax: 102%

## COc1ccc(Cl)c([C@@H](C)n2cnc3ccc(-c4ccccc4[C@H]4CCCCN4)cc32)c1Cl
[1]
  fold change (FC): 15000
[2]
  Emax: 88%
[3]
  EC50: 24 nM
[4]
  Emax: 120%

## N[C@@H](CC(=O)N1CCn2c(nnc2C(F)(F)F)C1)Cc1cc(F)c(F)cc1F [SITAGLIPTIN]
Mus musculus [33]
  Activity: 18%
